The source of these data is patent US20210145830A1, “MATERIALS AND METHODS FOR TREATING CANCER” (Mayo Foundation for Medical Education and Research, priority 2018, published 2021).

“Also recorded” adds a separate entry of the source.

Common to all, as to format: cell-based
The subject of assay [1] is CART19 cells. The assay is described as follows: RNA-seq of TP0903 treated vs non-treated CART19 cells. How it is done: FIG. 24A-B. A. Western blot analysis of p-LCK inhibition by TP0903 in CART19 cells. CART19 cells were incubated with lethally irradiated JeKo-1 in the presence of TP0903 at a 1 to 3 ratio for 24 hours. After the incubation, CART19 cells were purified with anti-CD19 micro beads. […] B. Comparison of gene expression between TP0903 treated CART19 cells and non-treated CART19 cells subpopulations using RNA-seq. CART19 cells from three biological replicates were thawed and stimulated with irradiated JeKo-1 (120 Gy) for 5 days. Each sample was treated with either 30 nM TP0903 (treated condition) or DMSO (untreated condition). Representative flow cytometric analysis of CART19 cells before RNA isolation (right). RNA-seq was performed on an Illumina […] by the Genomic Sequencing Core at Mayo Clinic.
FIG. 28A-E. A, Western blot analysis of p-LCK inhibition by TP-0903 in CART19 cells. CART19 cells were incubated with lethally irradiated JeKo-1 in the presence of TP0903 at a 1 to 3 ratio for 24 hours. After the incubation, CART19 cells were purified with anti-CD19 micro beads. B, Representative flow cytometric analysis of CART19 cells before RNA isolation. Principal component analysis (PCA) from RNA-seq analysis of untreated cells and cells treated with 30 nM of TP-0903. […]

For assay [2], the system named is CART cells. The experiment in a line: In vitro CART19 exhaustion assay. On the procedure:
FIG. 11 contains an exemplary timeline for an in vitro CART19 exhaustion assay in the presence of TP0903. T cells were incubated with target cells at a 1:5 ratio (experiments were done using JEKO cells as well as primary B cells). The low E:T ratio was used to induce a state of dysfunction of CART cells. Cells were cultured in the presence of increasing doses of TP0903. On day 5 of co-culture, cells were harvested, and expression of inhibitory receptors was analyzed. Co-culture in the presence of TP0903 reduces expression of PD1, TIM3, and LAG3 inhibitory receptors.
T cells were incubated with target cells at a 1:5 ratio (experiments were done using JEKO cells as well as primary B cells). The low E:T ratio was used to induce a state of dysfunction of CART cells. Cells were cultured in the presence of increasing doses of TP0903. On day 5 of co-culture, cells were harvested, and expression of inhibitory receptors was analyzed. Co-culture in the presence of TP0903 reduced expression of PD1, TIM3, and LAG3 inhibitory receptors. TP0903 reduced exhaustion receptors on CART cells (FIG. 12).

The subject of assay [3] is regulatory CART cells. The assay is described as follows: Regulatory CART cells in CART19 co-culture with targets. The settings on record: increasing doses of TP0903; CART19 co-cultured with targets. From the text:
FIG. 17. Increasing doses of TP0903 reduced regulatory CART cells when CART19 are co-cultured with their targets.

Assay [4] relates to p-LCK and GATA-3 in naïve T cells. The experiment in a line: Western blot of p-LCK and GATA-3 in naïve T cells. On the procedure:
FIG. 21A-E. TP0903 modulates naïve T cells function upon stimulation of PMA/Ionomycin in vitro. A. Naïve T cell proliferation assay in the presence of TP0903. Naïve T cells were stimulated with 5 ng/ml of PMA and 0.1 μg/ml of Ionomycin in the absence or in the increasing dose of TP0903 (10-65 nM) for 3 days. […] B. At the end of the expansion on day 3, T cells were stained with inhibitory receptors. […] C. Naïve T cell degranulation assay and cytokine production in the presence of TP0903. Naïve T cells were stimulated with 50 ng/ml of PMA and 1 μg/ml of Ionomycin for 4 hours in the presence of increasing doses of TP0903 (10-65 nM). […] D. Western blot analysis of p-LCK and GATA-3 inhibition by TP0903 in naïve T cells. Naïve T cells were stimulated with 5 ng/ml of PMA and 0.1 ug/ml of Ionomycin in the absence (DMSO) or in the increasing dose of TP0903 (10-65 nM) for 24 hours. […] was used as loading control. E. TP0903 specifically reduces regulatory T cells (Treg). Effector T cells (Teff) were isolated by negative selection using RoboSep™ Human T Cell Isolation Kit (Stemcell Technologies). Tregs were isolated by negative selection using the human CD4^+CD127^lowCD25^+ Treg isolation kit (Stemcell Technologies). Teff and Treg were stimulated with anti-CD3/CD28 beads and 400 U/ml of IL-2. At day 5, total T cells were evaluated via CountBright quantification.
In general terms: In western blotting, separated proteins are transferred to a membrane and probed.

[5] abbreviates: PMA/Ionomycin, 24 hours, highest dose (65 nM).

For the compound `CN1CCN(Cc2ccc(Nc3ncc(Cl)c(Nc4ccccc4S(=O)(=O)N(C)C)n3)cc2)CC1` [TP0903], the “immune synapse related genes (cell junction, cell migration)” value in assay [1] (activated CART cells treated with TP0903) is on record as “significantly increased”. In addition, the “differentially expressed genes in transcriptome vs non-treated cells” value in assay [1] (activated CART cells treated with TP0903 (30 nM)) is reported as “More than 100 genes”. Besides, the “expression of PD1, TIM3, and LAG3 inhibitory (exhaustion) receptors on CART cells” value in assay [2] (1:5 E:T, JEKO or primary B cells, increasing doses of TP0903, day 5) is on record as “reduces; also recorded: downregulated in a dose depended manner”. In assay [2] (CART19 with Jeko, Example 2), the “inhibitory receptors on activated CART cells” value was “significantly downregulated”. Also, in assay [3], the “regulatory CART cells” value is given as “reduced”. In assay [4] (setting [5]), the GATA-3 entry was “modest inhibition” and the “phosphorylation of LCK” value was “modest inhibition”. In assay [4] (T cell lysates, low dose TP0903), the LCK result is “inhibition”.
